The record followed here is ChEMBL document CHEMBL1129939, “Meta-substituted benzofused macrocyclic lactams as zinc metalloprotease inhibitors” (J Med Chem, 1997).

Assay [1] deals with Angiotensin-converting enzyme (Homo sapiens, UniProt P12821). The assay can be described thus: Inhibitory concentration required to inhibit Angiotensin I converting enzyme (ACE).
A further assay concerns the target Neprilysin (Homo sapiens, UniProt P08473). Put plainly: Inhibitory concentration required to inhibit neutral endopeptidase (NEP).
The target in the next assay is T1, Thermolysin (Bacillus thermoproteolyticus, UniProt P00800).
T1 sequence (P00800 whole entry): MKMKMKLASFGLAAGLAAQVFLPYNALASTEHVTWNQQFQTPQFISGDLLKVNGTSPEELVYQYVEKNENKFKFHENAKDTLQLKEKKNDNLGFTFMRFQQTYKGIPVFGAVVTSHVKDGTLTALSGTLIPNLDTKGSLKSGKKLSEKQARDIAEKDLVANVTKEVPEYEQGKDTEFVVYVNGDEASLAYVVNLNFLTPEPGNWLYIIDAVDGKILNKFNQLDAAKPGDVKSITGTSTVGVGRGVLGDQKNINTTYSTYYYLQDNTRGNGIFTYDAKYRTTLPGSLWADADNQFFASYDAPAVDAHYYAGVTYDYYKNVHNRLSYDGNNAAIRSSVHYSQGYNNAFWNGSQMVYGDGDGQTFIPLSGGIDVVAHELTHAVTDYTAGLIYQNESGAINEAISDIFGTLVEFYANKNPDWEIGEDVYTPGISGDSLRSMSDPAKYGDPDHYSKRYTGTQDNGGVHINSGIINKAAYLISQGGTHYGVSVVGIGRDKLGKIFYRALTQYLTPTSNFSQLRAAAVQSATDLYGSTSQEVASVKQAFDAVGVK
The assay can be described thus: Inhibitory concentration required to inhibit thermolysin (TLN).

Neprilysin, sequence (P08473 whole entry): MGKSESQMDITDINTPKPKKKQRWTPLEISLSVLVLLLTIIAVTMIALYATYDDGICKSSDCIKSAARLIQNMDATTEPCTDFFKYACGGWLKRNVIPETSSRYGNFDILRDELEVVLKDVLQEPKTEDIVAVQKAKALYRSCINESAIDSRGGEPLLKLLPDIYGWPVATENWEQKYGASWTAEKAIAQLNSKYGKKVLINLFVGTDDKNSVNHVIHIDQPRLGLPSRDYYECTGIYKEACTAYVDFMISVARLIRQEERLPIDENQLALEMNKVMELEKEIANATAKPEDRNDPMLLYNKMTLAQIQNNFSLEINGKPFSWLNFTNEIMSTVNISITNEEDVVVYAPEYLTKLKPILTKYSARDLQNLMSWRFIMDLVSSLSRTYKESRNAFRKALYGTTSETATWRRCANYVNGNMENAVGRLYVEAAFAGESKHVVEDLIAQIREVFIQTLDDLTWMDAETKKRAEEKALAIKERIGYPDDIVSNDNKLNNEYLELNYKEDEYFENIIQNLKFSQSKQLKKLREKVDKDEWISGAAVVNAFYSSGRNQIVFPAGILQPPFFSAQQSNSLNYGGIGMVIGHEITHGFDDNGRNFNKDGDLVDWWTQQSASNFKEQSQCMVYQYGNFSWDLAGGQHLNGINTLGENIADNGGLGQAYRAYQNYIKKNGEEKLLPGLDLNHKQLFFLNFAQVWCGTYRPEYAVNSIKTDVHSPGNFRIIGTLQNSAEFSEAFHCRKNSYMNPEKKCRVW
Angiotensin-converting enzyme, sequence (P12821 whole entry): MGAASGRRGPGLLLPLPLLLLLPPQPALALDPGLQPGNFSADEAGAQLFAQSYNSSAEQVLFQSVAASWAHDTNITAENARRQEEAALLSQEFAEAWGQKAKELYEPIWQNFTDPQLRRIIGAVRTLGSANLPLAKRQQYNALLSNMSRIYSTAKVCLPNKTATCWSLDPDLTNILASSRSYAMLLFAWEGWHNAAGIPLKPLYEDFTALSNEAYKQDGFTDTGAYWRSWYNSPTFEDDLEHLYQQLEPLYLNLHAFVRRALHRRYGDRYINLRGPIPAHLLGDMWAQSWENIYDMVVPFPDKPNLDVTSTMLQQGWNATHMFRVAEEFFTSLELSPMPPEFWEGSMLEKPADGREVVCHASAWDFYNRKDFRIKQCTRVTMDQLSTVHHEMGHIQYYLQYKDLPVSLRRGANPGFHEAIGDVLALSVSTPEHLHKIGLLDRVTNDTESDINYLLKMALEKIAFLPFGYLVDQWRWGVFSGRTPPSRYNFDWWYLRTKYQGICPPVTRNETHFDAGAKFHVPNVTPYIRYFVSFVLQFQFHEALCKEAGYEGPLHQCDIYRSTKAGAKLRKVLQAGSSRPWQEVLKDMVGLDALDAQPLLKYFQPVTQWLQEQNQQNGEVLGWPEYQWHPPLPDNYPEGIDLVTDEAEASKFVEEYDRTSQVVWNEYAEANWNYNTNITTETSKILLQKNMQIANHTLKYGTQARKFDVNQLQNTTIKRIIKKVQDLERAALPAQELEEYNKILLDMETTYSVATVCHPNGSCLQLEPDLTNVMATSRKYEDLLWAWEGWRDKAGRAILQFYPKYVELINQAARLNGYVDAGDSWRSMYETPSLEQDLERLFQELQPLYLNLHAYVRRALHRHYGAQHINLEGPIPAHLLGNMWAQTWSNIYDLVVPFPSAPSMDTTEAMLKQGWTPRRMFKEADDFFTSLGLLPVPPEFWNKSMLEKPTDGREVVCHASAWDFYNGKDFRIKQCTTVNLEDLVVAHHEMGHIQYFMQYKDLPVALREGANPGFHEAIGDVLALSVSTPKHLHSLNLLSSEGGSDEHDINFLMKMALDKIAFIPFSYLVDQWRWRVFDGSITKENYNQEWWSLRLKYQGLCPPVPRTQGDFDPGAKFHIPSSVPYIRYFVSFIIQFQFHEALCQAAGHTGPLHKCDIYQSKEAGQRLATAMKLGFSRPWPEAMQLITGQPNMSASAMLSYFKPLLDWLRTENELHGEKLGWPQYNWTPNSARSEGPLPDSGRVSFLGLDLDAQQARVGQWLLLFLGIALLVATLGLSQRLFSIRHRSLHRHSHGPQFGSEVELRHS

Regarding `O=C1N[C@@H](C(=O)O)Cc2ccccc2CCCCC[C@@H]1CS`, in assay [1], the 50% inhibitory concentration (IC50) was determined as 6000 nM. As for `O=C1N[C@H](C(=O)O)CCCCCc2ccccc2C[C@@H]1CS`, the midpoint of inhibition in assay [1], the IC50, lay at 8000 nM. For `O=C1N[C@H](C(=O)O)CCCCCCc2cccc(c2)C[C@H]1CS`, the IC50 is 118 nM in assay [1], 445 nM at Neprilysin and over 10 µM against Thermolysin. Regarding `O=C1N[C@@H](C(=O)O)Cc2ccccc2CCCCCC[C@@H]1CS`, in assay [1], the IC50 worked out at 470 nM. On the same count and under the same terms, the same measure for `C[C@H](CS)C(=O)N1Cc2[nH]c3ccccc3c2CC1C(=O)O` (some centres not stated): 500 nM.

`O=C1N[C@H](C(=O)O)CCCCCc2cccc(c2)C[C@@H]1CS`: the IC50 in assay [1] was determined as 4 nM; at Neprilysin it was 8 nM; on Thermolysin it was 48 µM. The matching figures for `O=C1N[C@H](C(=O)O)CCCCCCc2cccc(c2)C[C@@H]1CS`: 175 nM, 4 nM and 34 µM. Molecule `O=C1N[C@@H](C(=O)O)Cc2ccccc2CCCCCCC[C@@H]1CS` showed an IC50 in assay [1] of over 10000 nM.

On to `O=C1N[C@H](C(=O)O)CCCCCc2cccc(c2)C[C@H]1CS`, for which the figures for the IC50 (in assay [1]; against Neprilysin; against Thermolysin) were 1400 nM, 1000 nM and over 10 µM, respectively. For `O=C1N[C@H](C(=O)O)CCCCc2ccccc2C[C@H]1CS`, the half-inhibitory concentration (IC50) in assay [1] was over 10000 nM. The same measure, in the same setting: as for `O=C1N[C@H](C(=O)O)Cc2ccccc2CCCCCC[C@@H]1CS`, the figure is 725 nM; as for `O=C1N[C@H](C(=O)O)CCCCc2ccccc2C[C@@H]1CS`, over 10000 nM; as for `O=C1N[C@H](C(=O)O)CCCCCc2ccccc2C[C@H]1CS`, 2000 nM. For the molecule `O=C1N[C@H](C(=O)O)CCCCCCc2ccccc2C[C@H]1CS`, the values for the half-maximal inhibitory concentration (IC50) (in assay [1]; on Neprilysin; at Thermolysin) were over 10000 nM, 224 nM and 41 µM, respectively.

In the case of `O=C1N[C@H](C(=O)O)CCCCCCc2ccccc2C[C@@H]1CS`, the IC50 was over 10000 nM in assay [1], 27 nM against Neprilysin and 1.8 µM on Thermolysin.

Broadly, the IC50 is the concentration needed to halve the response being measured. The low end stands for higher potency, the high end for lower potency.
